Usually Kd stands for a measure of binding affinity in units of concentration.

From ChEMBL document CHEMBL5579878, “Allosteric Activation of Protein Phosphatase 5 with Small Molecules” (J Med Chem, 2024) come the findings set out here.

Active and inactive are the calls of the source. The calls are words filed in the database; no cut-off is given here.

The target in assay [1] is T1, Low molecular weight phosphotyrosine protein phosphatase (Homo sapiens) (UniProt P24666).
T1 sequence (whole entry): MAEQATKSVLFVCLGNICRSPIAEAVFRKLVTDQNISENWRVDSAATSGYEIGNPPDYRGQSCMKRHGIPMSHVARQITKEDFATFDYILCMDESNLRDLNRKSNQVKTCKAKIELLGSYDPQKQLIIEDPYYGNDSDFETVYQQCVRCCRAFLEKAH
Put plainly: Inhibition of LMPTP-A (unknown origin) using DiFMUP as substrate at 0.01 to 1000 uM. Conditions: dose 0.01-1000 µM.

Assay [2] has as its system T2, Serine/threonine-protein phosphatase 5 (Homo sapiens), P53041 [V429A].
T2 sequence (whole entry): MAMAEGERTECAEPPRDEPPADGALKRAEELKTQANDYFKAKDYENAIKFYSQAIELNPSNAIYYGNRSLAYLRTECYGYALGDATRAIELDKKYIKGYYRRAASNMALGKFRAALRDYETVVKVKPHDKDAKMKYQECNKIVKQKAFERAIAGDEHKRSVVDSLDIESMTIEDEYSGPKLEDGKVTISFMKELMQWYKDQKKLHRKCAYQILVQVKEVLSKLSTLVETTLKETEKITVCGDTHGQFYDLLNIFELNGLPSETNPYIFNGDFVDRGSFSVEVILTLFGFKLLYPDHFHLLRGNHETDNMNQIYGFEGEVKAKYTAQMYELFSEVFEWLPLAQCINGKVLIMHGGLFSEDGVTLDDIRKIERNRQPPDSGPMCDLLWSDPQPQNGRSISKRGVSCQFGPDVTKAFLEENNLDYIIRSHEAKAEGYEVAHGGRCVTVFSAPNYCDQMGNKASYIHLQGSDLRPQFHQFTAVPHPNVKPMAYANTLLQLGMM
Put plainly: Activation of PP5 V429A mutant (unknown origin) using pNPP as substrate assessed as increase in phosphatase activity at 10 to 200 uM incubated for 30 mins by spectrophotometric analysis. Conditions: dose 10-200 µM.

The target in assay [3] is Serine/threonine-protein phosphatase 5 (Homo sapiens, UniProt P53041, K430A). Nature of the assay: Binding affinity to PP5 K430A mutant (unknown origin) assessed as dissociation constant by ITC analysis.
Chain of Serine/threonine-protein phosphatase 5 (P53041 2-499 K430A limits assumed): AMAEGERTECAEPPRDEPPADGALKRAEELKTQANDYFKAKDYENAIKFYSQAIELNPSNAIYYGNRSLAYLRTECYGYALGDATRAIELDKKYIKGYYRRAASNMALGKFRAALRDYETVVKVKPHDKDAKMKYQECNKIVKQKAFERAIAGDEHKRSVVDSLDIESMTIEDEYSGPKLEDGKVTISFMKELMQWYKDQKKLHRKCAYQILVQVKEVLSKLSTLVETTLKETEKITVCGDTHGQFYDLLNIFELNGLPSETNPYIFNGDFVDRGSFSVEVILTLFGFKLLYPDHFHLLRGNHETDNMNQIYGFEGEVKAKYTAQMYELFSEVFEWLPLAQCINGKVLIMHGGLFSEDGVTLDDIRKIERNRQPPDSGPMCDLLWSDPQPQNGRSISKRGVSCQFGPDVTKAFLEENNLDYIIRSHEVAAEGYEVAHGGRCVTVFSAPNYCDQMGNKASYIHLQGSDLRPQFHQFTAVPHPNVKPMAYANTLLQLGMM

`N=c1oc2cc(F)cc(F)c2cc1C(N)=S`: the inhibition entry in assay [1] was “inactive”. For the same compound, the result in assay [2] was inactive. For the same compound, the Kd in assay [3] came out at 37.2 µM.
